From US9487749B2 (priority 2009, dated 2016)
Values joined by “and” are separate entries in the source; they are usually repeats but may differ in a detail not shown here. Identical values can stand only once.

How the values were obtained:
Lactobacillus rhamnosus = assay: Growth of Lactobacillus rhamnosus in MRS broth fortified with MSM; format: cell-based; conditions: for Growth (colony forming units): 0.04% MSM in MRS broth, 0-72 hours
Description: (§1) Each organism (Lactobacillus rhamnosus, Lactobacillus acidophilus, and Bifidobacterium bifidum) was grown in MRS bacterial growth medium (broth) and plated on MRS agar at different time intervals. Results are expressed in colony forming units per milliliter (cfu/mL). […] All bacterial organisms were incubated at 35° C. +/−2° C. for the duration of the study. […] All preparations and plating were conducted at room temperature. […] Test samples were plated in triplicate at each test date and the averages are reported.

Escherichia coli = assay: USP Antimicrobial Effectiveness Test (AET) of MSM supplemented TSB; format: cell-based; parameters: key: Colonies too numerous to count (TNTC); conditions: 48 hrs
Description: (§2) Compounds or formulated products having antimicrobial activity may be evaluated with the United States Pharmacopeia (USP) Antimicrobial Effectiveness Test (AET). The AET involves the addition of specified microorganisms (Candida albicans, Aspergillus niger, Escherichia coli, Pseudomonas aeruginosa and Staphylococcus aureus) directly to a test product at relatively high concentrations to simulate contamination. The product is held for one month, with weekly analysis of microorganism levels. […] For yeast and mold, no increase from the initial inoculums level is permitted. […] Inoculations were made using Candida albicans, Aspergillus niger, Escherichia coli, Pseudomonas aeruginosa and Staphylococcus aureus. Tryptic soy broth (TSB) was used as the culturing media. […] The inoculated media was held for one month, during which time the added microorganisms were enumerated weekly to determine if they were growing, dying off, or remaining near the initial inoculation level. […] The acceptance criteria for antimicrobial effectiveness are described in detail in the USP, herein incorporated by reference.

Pseudomonas aeruginosa = assay: as above; format: cell-based; parameters: key: Colonies too numerous to count (TNTC); conditions: 48 hrs
Description: as §2

[1] = system: MDCK cells (ATCC # CCL-34); assay: Cytotoxicity of MSM on host cells; conditions: for Test Product Cytotoxicity: MDCK
Description: Determination of test product cytotoxicity. The highest non-cytotoxic concentration of the test product was determined prior to the test.
B. Toxicity Control for Pre-Treatment Test.

Bifidobacterium bifidum = assay: Growth of Bifidobacterium bifidum in MRS broth fortified with MSM (anaerobic); format: cell-based
Description: as §1, with “reported. Bifidobacterium bifidum, a common microbe used in probiotics, was also tested. All Bifidobacterium samples were incubated under anaerobic conditions.” for “reported.”

Bacillus coagulans = assay: Viability and colony formation of Bacillus coagulans supplemented with MSM (population count, weight, percent transmittance); format: cell-based; conditions: for Population Count Average / Population Weight Average: 72 hours; for Population Weight Average: washed pellet; for percent transmittance: 25×25 mm agar section, 546 nm
Description: At the end of the 72 hours, the broth was measured for colony formation, with photographic documentation of colony formation on tryptic soy agar. […] For the Bacillus coagulans, the organism was isolated and grown for 24 hours before harvesting. […] One milliliter of Dilution B was used to inoculate the 30 mL of TSB concentrations stated above. […] Each dilution for the microorganism was plated in triplicate for each sample. To capture the appropriate colonies per milliliter, the microorganism was plated at six different dilutions. […] The population count was based on the dilution of the tryptic soy broth after 72 hours and inoculation on to tryptic soy agar plates. The plates were incubated for 48 hours and enumerated. The tryptic soy broth after 72 hours was centrifuged down in a conical vial. The supernatant was pulled off and the pellet was washed. The centrifuging and washing was repeated three times. At the end of the third wash, the vials with pellet were weighed. Each vial was weighed empty and recorded. The corresponding vial weight was then subtracted from the ending weight of the pellet and vial, to get the weight of the Bacillus coagulans population. […] The slides were sealed to prevent the agar plug from slipping. The wavelength was set at 546 nm, and two empty slides were used as a blank. […] The weights indicated a heavier growth or a colony that was larger in size adding to the weight of the biomass. The percent transmittance was used to indicate Bacillus coagulans colony size in which a decrease in transmittance indicates an increase in colony size as the colony inhibited light from passing through the agar. […] It was observed that the percent transmittance result may be influenced by the sample size, sample location and agar variables.

[2] = system: Lactobacillus acidophilus; assay: Lactobacillus acidophilus milk growth in simulated gastric acid supplemented with MSM; format: cell-based; conditions: for Log Growth of L. acidophilus in milk average / Log Growth of L. acidophilus in milk in duplicate: simulated gastric acid pH 1.2
[3] = system: Acidophilus plus Bifidus milk microorganisms; assay: Growth in Acidophilus plus Bifidus milk fortified with MSM; format: cell-based; conditions: A/B milk

CS(C)(=O)=O [MSM, Methylsulfonylmethane]
Growth (colony forming units) (Lactobacillus rhamnosus; 0 hours of incubation): 1.7 × 10^6 cfu/mL
Growth (colony forming units) (Lactobacillus rhamnosus; 12 hours of incubation): 2.1 × 10^7 cfu/mL
Growth (colony forming units) (Lactobacillus rhamnosus; 24 hours of incubation): 1.5 × 10^9 cfu/mL
Growth (colony forming units) (Lactobacillus rhamnosus; 36 hours of incubation): 1.8 × 10^9 cfu/mL
Growth (colony forming units) (Lactobacillus rhamnosus; 48 hours of incubation): 2.1 × 10^9 cfu/mL
Growth (colony forming units) (Lactobacillus rhamnosus; 60 hours of incubation): 2.6 × 10^9 cfu/mL
recovery higher than the 0% control (Lactobacillus rhamnosus; 0.2% MSM, first 12 hours): 41%
recovery higher than the 0% control (Lactobacillus rhamnosus; 1% MSM, first 12 hours): 47%
recovery more than the 0% control (Lactobacillus rhamnosus; all MSM samples, first 12 hours): at least 12%
AET test results (microorganism count) (Escherichia coli; 1:100 dilution of MSM in TSB): TNTC
AET test results (microorganism count) (Escherichia coli; 1:1000 dilution of MSM in TSB): TNTC
AET test results (microorganism count) (Pseudomonas aeruginosa; 1:100 dilution of MSM in TSB): TNTC
AET test results (microorganism count) (Pseudomonas aeruginosa; 1:1000 dilution of MSM in TSB): TNTC
Test Product Cytotoxicity ([1]; 0.5%): 00
Test Product Cytotoxicity ([1]; 1%): 00
Test Product Cytotoxicity ([1]; 2%): 00
Test Product Cytotoxicity ([1]; 3%): 00
Test Product Cytotoxicity ([1]; 4%): 00
Test Product Cytotoxicity ([1]; 5%): 00
cytotoxic effect ([1]; MSM concentrations 6% through 0.5%): no visible cytotoxic effect
log increase of Bifidobacterium (Bifidobacterium bifidum; 0.04% MSM): One
log higher than the 0% MSM control (Bifidobacterium bifidum; 0.04% and 0.2% MSM samples, 48 hours): 1 log
log increase of Bifidobacterium (Bifidobacterium bifidum; 0.2% MSM): 2 log
Population Count Average (Bacillus coagulans; 1.0% MSM in TSB): 1.01 × 10^11
Population Weight Average (Bacillus coagulans; 1.0% MSM in TSB): 0.1363
percent transmittance (Bacillus coagulans; 1.0% MSM): 51.5%
Population Count Average (Bacillus coagulans; 5.0% MSM in TSB): 2.8 × 10^11
Population Weight Average (Bacillus coagulans; 5.0% MSM in TSB): 0.1260
percent transmittance (Bacillus coagulans; 5.0% MSM): 45.6%
Population Count Average (Bacillus coagulans; […] MSM in TSB): 3.3 × 10^11
Population Weight Average (Bacillus coagulans; […] MSM in TSB): 0.9828
percent transmittance (Bacillus coagulans; […] MSM): 49.8%
increase in log growth from previous time point ([2]; 5.0% MSM, 24 hours): 0.23 logs
decrease in log growth from previous time point ([2]; 5.0% MSM, Hour 48): 0.33 logs
Log Growth of L. acidophilus in milk average ([2]; 5% MSM, hour 0): 0.41 log
Log Growth of L. acidophilus in milk average ([2]; 5% MSM, hour 3): 0.41 log
Log Growth of L. acidophilus in milk in duplicate ([2]; 5% MSM, hour 6): 0.82 log and 1 log
Log Growth of L. acidophilus in milk average ([2]; 5% MSM, hour 6): 0.91 log
Log Growth of L. acidophilus in milk in duplicate ([2]; 5% MSM, hour 9): 0.52 log
Log Growth of L. acidophilus in milk average ([2]; 5% MSM, hour 9): 0.52 log
Log Growth of L. acidophilus in milk average ([2]; 5% MSM, hour 12): 1.10 log
Log Growth of L. acidophilus in milk in duplicate ([2]; 5% MSM, hour 15): 1.43 log
Log Growth of L. acidophilus in milk average ([2]; 5% MSM, hour 15): 1.43 log
Log Growth of L. acidophilus in milk in duplicate ([2]; 5% MSM, hour 24): 1.67 log and 1.64 log
Log Growth of L. acidophilus in milk average ([2]; 5% MSM, hour 24): 1.66 log
Log Growth of L. acidophilus in milk in duplicate ([2]; 5% MSM, hour 48): 1.22 log and 1.43 log
Log Growth of L. acidophilus in milk average ([2]; 5% MSM, hour 48): 1.33 log
log growth higher than control ([2]; 5.0% MSM, listed as order: hour 15, maximum vs control maximum): 0.45 logs and 0.68 logs
increase in log growth from previous time point ([2]; […] MSM (so in the source), 24 hours): 0.30 logs
decrease in log growth from previous time point ([2]; […] MSM, 24 hours): 0.11 logs
decrease in log growth from previous time point ([2]; […] MSM, Hour 48): 0.38 logs
Log Growth of L. acidophilus in milk in duplicate ([2]; […] MSM, hour 0): 0 log
Log Growth of L. acidophilus in milk average ([2]; […] MSM, hour 0): 0 log
Log Growth of L. acidophilus in milk average ([2]; […] MSM, hour 9): 0.41 log
increase in logs from hour 15 to 24 ([2]; […] and 5.0% MSM): ≥ 0.24 logs
reduction of viability (Streptococcus Pneumonia): approximately 5%
Log Growth of Lactobacillus acidophilus in Milk fortified with MSM ([3]; hour 0): 6.41 log
Log Growth of Lactobacillus acidophilus in Milk fortified with MSM ([3]; hour 8): 8.67 log
Log Growth of Lactobacillus acidophilus in Milk fortified with MSM ([3]; hour 24): 9.16 log
Log Growth of Lactobacillus acidophilus in Milk fortified with MSM ([3]; hour 56): 8.56 log
Log Growth of Lactobacillus acidophilus in Milk fortified with MSM ([3]; hour 96): 8.61 log
Log Growth of Lactobacillus acidophilus in Milk fortified with MSM ([3]; hour 104): 8.92 log
